US20160318856A1, “Substituted Urea eIF2alpha Kinase Activators” (THE BRIGHAM AND WOMEN'S HOSPITAL, INC., priority 2013, published 2016)
Like-named read-outs stand apart in the source and are kept apart here.

Legend:
NIH/3T3 fibroblast cells = assay: cell proliferation (SRB) assay, NIH/3T3; format: cell-based; settings: for IC50: Mus musculus, NIH3T3, NIH/3T3, Table 8, Mean IC50±S.E.M., read-out: IC50 of compounds
Method: (§1) Cells were seeded in 96-well plates and maintained for 5 days in the presence of 0.5 to 20 μM of individual compound, and cell proliferation was measured by the sulforhodamine B (SRB) assay as described previously (see, for example, Palakurthi, S. S. et al. Cancer Research 2000, 60(11), 2919-2925). Briefly, at the end of a 5-day treatment, cells were fixed in 10% cold trichloroacetic acid. Cell number was estimated by measuring the remaining bound dye of sulforhodamine B after washing. The percentage of growth was calculated by using the equation: 100×[(T−T0)/(C−T0)], where T and C represent the absorbance in treated and control cultures at Day 5, and T0 at time zero, respectively. If T is less than T0, cell death has occurred and can be calculated from 100×[(T−T0)/T0].
The experiments were conducted in triplicate, and each experiment was independently performed three times. IC50=effective dose of drug that inhibit cell proliferation by 50%. Data are shown as Mean±S.E.M.
Compounds I-6p, I-17, I-18 and I-20 were tested in NIH/3T3 fibroblast and CRL-2813 melanoma cancer cells in cell proliferation assay. The experiment was conducted in triplicate and each experiment was independently performed three times. Data are shown as Mean IC50±S.E.M.

[1] = tested on: CRL-2813 human melanoma cancer cells transfected with HRI-targeting or non-targeting siRNA; assay: cell proliferation (SRB) assay after HRI knockdown; format: cell-based; settings: CRL-2813 cells, FIG. 10
Method: as §1
Cell proliferation is a meaningful read-out for determining the specificity of a compound as it captures both on-target and off-target effects of the compound under study. […] If these compounds specifically activate HRI and this activity is required for the inhibition of cell proliferation, then reducing the expression of HRI should blunt their effect on cell proliferation. For this purpose, expression of HRI was knocked down in CRL-2813 human melanoma (about 70% knockdown efficiency) and MCF-7 human breast cancer cells (about 90% knockdown efficiency). These two cell lines were chosen because the HRI knockdown efficiency is lower in CRL-2813 than in MCF-7 cells providing a sort of dose-response data that correlates knockdown efficiency with the resistance of cells to inhibition of cell proliferation. […] Referring to FIG. 5A, CRL-2813 human melanoma cancer cells, and (FIG. 5B) MCF-7 human breast cancer cells were transfected with HRI targeted or non-targeted siRNA, treated with the indicated concentrations of I-6p and cell proliferation was measured by SRB assay. Calculated IC50 for all four compounds tested in CRL-2813 human melanoma cancer cells and MCF-7 human breast cancer cells transfected with non-target siRNA control (NTC) or HRI is shown in FIG. 5C and FIG. 5D, respectively. The experiment was conducted in triplicate and each experiment was independently performed three times. Data are shown as Mean±S.E.M. *NTC=non-target siRNA control.
Referring to FIG. 8, CRL-2813 human melanoma cancer cells were transfected with HRI targeted or non-targeted siRNA, treated with the indicated concentrations of (A) I-14, (B) I-15, (C) III-4 and (D) III-5 and cell proliferation was measured by SRB assay. Calculated IC50 for all four compounds tested in CRL-2813 human melanoma cancer cells transfected with non-target siRNA control (NTC) or HRI is shown in (E). The experiment was conducted in triplicate and each experiment was independently performed three times. Data are shown as Mean±S.E.M. *NTC=non-target siRNA control, IC50=effective dose of drug that inhibit cell proliferation by 50%.
In general, if the affinity of compounds for their molecular target is increased this should result in higher specificity of the compounds in the cell proliferation assay. […] These five compounds, two with average and three with high potency, were tested in cell proliferation assay using CRL-2813 cells transfected with non-targeted siRNA or HRI-targeted siRNA as described above.

[2] = tested on: eIF2α phosphorylation (eIF2•GTP•Met-tRNAi ternary complex; HRI activation); assay: surrogate dual luciferase eIF2α phosphorylation (ternary complex) assay; format: cell-based, human; settings: Homo sapiens; surrogate eIF2α phosphorylation assay, Table 3; read-out: Emax (F/R)
Outline: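 Cell-based dual luciferase reporter: firefly luciferase behind the ATF-4 5′UTR (uORFs) and renilla luciferase behind a uORF-free 5′UTR, read with a dual glow kit. Activity given as firefly/renilla ratio normalised to DMSO wells set at 1, with a rising ratio reflecting reduced ternary complex (e.g., HRI activation).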

[3] = tested on: CRL-2813 human melanoma cancer cells; assay: cell proliferation (SRB) assay, CRL-2813; format: cell-based; settings: Homo sapiens, CRL2813
Outline: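 Cells exposed 5 days to 0.5–20 μM compound, then TCA-fixed and stained with sulforhodamine B. Growth as 100×[(T−T0)/(C−T0)] from absorbance of treated, control and time-zero cultures; cell death as 100×[(T−T0)/T0] where T is below T0.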

[4] = CRL-2813, Table 8, Mean IC50±S.E.M., read-out: IC50 of compounds
[5] = cell proliferation assay, Table 3, cell line not named, values equal CRL-2813 values of Table 8, read-out: IC50

Row | fold higher IC50 values in cells transfected with HRI-targeting siRNA vs. non-targeting siRNA [1] [fold] | IC50 [3, 4] [nM] | IC50 [3, 5] [nM] | Structure (SMILES) | fold higher potency on cancer cells compared to non-transformed cells (NIH/3T3 fibroblast cells; CRL-2813 human melanoma vs NIH-3T3 fibroblast) | IC50 (NIH/3T3 fibroblast cells) [nM] | maximal fold induction [2]
1 | ~7.5 | 460 ± 100 | 460 ± 100 | O=C(Nc1cccc(C(F)(F)F)c1)NC1CCC(Oc2ccc(C(F)(F)F)cc2)CC1 (centres unmarked) [Compound I-18, 1-(4-(4-(Trifluoromethyl)phenoxy)cyclohexyl)-3-(3-(trifluoromethyl)phenyl)urea] | highest discrimination between cancer and non-cancerous cells | 3400 ± 100 | 25.1
2 | ~5 | 1300 ± 100 | 1300 ± 100 | O=C(Nc1cccc(C(F)(F)F)c1)NC1CCC(Oc2cccc(C(F)(F)F)c2)CC1 (centres unmarked) [Compound I-20, 1-(4-(3-(Trifluoromethyl)phenoxy)cyclohexyl)-3-(3-(trifluoromethyl)phenyl)urea] |  | 3300 ± 200 | 26
